In article PMC12354831 (Cell Death Discovery, 2025):
Several values for one entry are separate records, joined by “and”; a condition that tells them apart may be missing. Equal entries are not always repeated. Where two headings read alike, the source gives them in different places.

Assays:
[1] = test system: U87-MG cells; experiment: CCK-8 IC50 determination in U87-MG cells with or without GLUT3 KD; format: cell-based, human; settings: GLUT3 KD vs control, CCK-8, 24 h drug treatment
Method: The GBM cell line was seeded into a 96-well plate at a density of 5 × 10^3 cells per well and incubated at 37 °C in a humidified atmosphere containing 5% CO2 overnight. […] Following 24 h of drug treatment, 10 µL of CCK-8 reagent was added to each well, and the cells were incubated for an additional 1 h at 37 °C. The absorbance was then measured at 450 nm using a microplate reader.
In this study, the experimental groups were designated as Group A (cells treated with temozolomide (TMZ) or capecitabine (CAPE)), the control group as Group B (cells treated with DMSO), and the blank control group as Group C ([…]). The cell viability rate was calculated using the formula: (A-C)/(B-C) × 100%, where A, B, and C represent the absorbance values of Group A, Group B, and Group C, respectively.

[2] = target: T1, GLUT3 (Homo sapiens, UniProt P11169); experiment: Microscale thermophoresis (MST) binding assay, GLUT3-GFP in cell lysates
T1 construct: expressed in transfected cells
T1 sequence (P11169 1-496): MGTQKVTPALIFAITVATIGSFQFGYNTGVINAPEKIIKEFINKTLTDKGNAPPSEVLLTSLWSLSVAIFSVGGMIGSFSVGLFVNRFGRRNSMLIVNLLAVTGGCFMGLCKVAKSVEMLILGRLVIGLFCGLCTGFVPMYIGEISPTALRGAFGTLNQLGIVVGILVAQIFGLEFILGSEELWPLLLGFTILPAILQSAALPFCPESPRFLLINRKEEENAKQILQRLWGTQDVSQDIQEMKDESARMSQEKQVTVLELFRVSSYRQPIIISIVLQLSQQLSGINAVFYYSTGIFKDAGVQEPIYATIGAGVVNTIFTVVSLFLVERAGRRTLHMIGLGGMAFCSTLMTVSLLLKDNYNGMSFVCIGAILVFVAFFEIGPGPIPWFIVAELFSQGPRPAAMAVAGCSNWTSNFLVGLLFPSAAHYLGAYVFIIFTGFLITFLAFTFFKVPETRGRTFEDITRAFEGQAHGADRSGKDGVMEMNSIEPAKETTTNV
Method: Data from three independent measurements were analyzed using MO. Affinity Analysis software (version 2.1.3, NanoTemper Technologies).

[3] = test system: U251-MG cells; experiment: Colony formation assay in U251-MG cells overexpressing GLUT3 Q159A, W386A or WT; format: cell-based, human; settings: TMZ 200 μM or CAPE 400 μM every two days
Method: GBM cells were harvested using 0.25% trypsin when cell viability was confirmed to be optimal, and the cell concentration was determined using a hemocytometer. A total of 1 × 10³ cells were seeded into each well of a 6-well plate and incubated at 37 °C overnight. The following day, cell morphology was examined under an inverted microscope. The culture medium was replaced every 2 days, and cell growth was monitored regularly. When cell colonies exceeded 50 cells, they were recorded. The cells were then washed with pre-warmed PBS. Subsequently, the cells were fixed with 4% paraformaldehyde (1 mL per well) for 20 min at room temperature. After fixation, the cells were washed three times with PBS. A total of 1 mL of 0.1% crystal violet staining solution was added to each well for 20 min. The wells were then washed three times with distilled water, covered with a plate lid, and left to dry overnight. The number of colonies in each well was quantified using ImageJ software.
The medium was replaced every 2 days. When colonies visible to the naked eye had formed, the cells were fixed with 4% paraformaldehyde and stained with 0.1% crystal violet as described above. The colonies were then quantified using ImageJ software for statistical analysis.

[4] = test system: U251-MG cell-derived xenograft; experiment: Tumor growth in U251-MG cell-derived xenograft model; format: in vivo, nude mice (BALB/c-nu); settings: TMZ 40 mg/kg or CAPE 20 mg/kg every 3 days; for effect of fasting on tumor growth under drug treatment: GLUT3-overexpressing tumors, 24 h fast before each dose vs non-fasting; for effect on tumor growth vs saline groups: nude mice
Method: All animal studies were approved and supervised by the Ethics Committee for Animal Use and Care at Peking University. Nude mice (BALB/c-nu) were purchased and maintained as previously described. For the establishment of xenograft tumor models, 1 × 10^6 U251-MG cells (either negative vector control or overexpressing GLUT3) were injected into the bilateral axillary fossae of 4-week-old nude mice. After 7 days, when palpable tumors had formed, the mice were randomly divided into six experimental groups (n = 7 per group), and treatment was initiated immediately.
Tumor diameters were measured every 4 days using calipers. At the end of the study, all mice were sacrificed, and the tumors were carefully excised and weighed. Tumor volume was calculated using the formula V = (length*width^2)/2. Data were analyzed using statistical software to evaluate the differences among groups.

[5] = across the tested GBM cell lines (U343-MG, U251-MG), read-out: Kd values
[6] = GLUT3 Q159A vs GLUT3 WT overexpression
[7] = GLUT3 W386A vs GLUT3 WT overexpression

Row | SMILES | fold increase of IC50 on GLUT3 knockdown [1] [fold] | Kd ([2]; U251-MG lysate, GLUT3-GFP, pH 6.8, read-out: Kd) [µM] | Kd [2, 5] | fold increase in colony numbers [3, 6] [fold] | fold increase in colony numbers [3, 7] [fold] | effect of fasting on tumor growth under drug treatment [4] | effect on tumor growth vs saline groups [4]
1 | CCCCCOC(=O)Nc1nc(=O)n([C@@H]2O[C@H](C)[C@@H](O)[C@H]2O)cc1F [CAPE, capecitabine] | 56.5 | 1.8 ± 1.1 | 1 to 3 µM and 0.9 to 3.5 µM | 1.7 | 4.4 | significantly inhibited tumor growth | reducing tumor weights and volumes
2 | Cn1nnc2c(C(N)=O)ncn2c1=O [TMZ] | 10.6 |  | 0.3 to 0.7 µM | 0.97 | 7.3 | significantly inhibited tumor growth | reducing tumor weights and volumes
